Test system: cGVHD symptom burden
Test: Example 1: Lee Symptom Scale (LSS) score
Format: in vivo, human
Protocol: Lee Symptom Scale (LSS) summary score measures the effect on patients' functioning and well-being. The Lee Symptom Scale is a 30-item scale developed to measure the symptoms of cGVHD and is described in Lec S J, Cook E F, Soiffer R, Antin J H. Development and validation of a scale to measure symptoms of chronic graft-versushost disease. Biol Blood Marrow Transplant 2002; 8:444-452.
All responses were assessed by the investigators.
Change From Baseline in Overall Score on Lee cGvHD Symptom Scale at Specified Time Points. Lee cGVHD symptom scale, a patient-reported symptom scale used to measure symptom burden and has 7 subscales (Skin, Eyes and Mouth, Breathing, Eating and Digestion, Muscles and Joints, Energy, and Mental and Emotional) with ratings as follows: 0—Not at all, 1—Slightly, 2—Moderately, 3—Quite a bit, 4—Extremely, with lower values representing better outcome. Score for each subscale was normalized to a score ranged from 0 to 100, where higher score=worse symptoms. An overall score was calculated as average of these 7 subscales. EOT visit was performed within 3 days after the participant's last dose of study drug. Baseline value was defined as valid and last non-missing value obtained within 28 days prior to participant receiving first study medication. […] Analysis was performed on mITT population. Here, ‘number analyzed’=participants with available data for each specified category. Here, ‘0’ in the number analyzed field signifies that none of the participants were available for the analysis at the specified time points.

CC(C)NC(=O)COc1cccc(-c2nc(Nc3ccc4[nH]ncc4c3)c3ccccc3n2)c1 [Belumosudil, 2-{3-[4-(1H-indazol-5-ylamino)-2-quinazolinyl]phenoxy}-N-(propan-2-yl) acetamide]
Change From Baseline in Overall Score on Lee cGvHD Symptom Scale, Mean (Standard Deviation) (Cohort 2: 200 mg BID, Cycle 9, Day 1): −4.2 (5.5) score on a scale
Change From Baseline in Overall Score on Lee cGvHD Symptom Scale, Mean (Standard Deviation) (Cohort 2: 200 mg BID, Cycle 10, Day 1): −2.7 (6.1) score on a scale
Change From Baseline in Overall Score on Lee cGvHD Symptom Scale, Mean (Standard Deviation) (Cohort 2: 200 mg BID, Cycle 11, Day 1): −5.5 (6.0) score on a scale
Change From Baseline in Overall Score on Lee cGvHD Symptom Scale, Mean (Standard Deviation) (Cohort 2: 200 mg BID, Cycle 12, Day 1): −7.6 (7.7) score on a scale
Change From Baseline in Overall Score on Lee cGvHD Symptom Scale, Mean (Standard Deviation) (Cohort 2: 200 mg BID, Cycle 13, Day 1): −5.9 (8.8) score on a scale
Change From Baseline in Overall Score on Lee cGvHD Symptom Scale, Mean (Standard Deviation) (Cohort 2: 200 mg BID, Cycle 14, Day 1): −5.0 (7.3) score on a scale
Change From Baseline in Overall Score on Lee cGvHD Symptom Scale, Mean (Standard Deviation) (Cohort 2: 200 mg BID, Cycle 15, Day 1): −6.8 (7.0) score on a scale
Change From Baseline in Overall Score on Lee cGvHD Symptom Scale, Mean (Standard Deviation) (Cohort 2: 200 mg BID, Cycle 16, Day 1): −6.9 (7.6) score on a scale
Change From Baseline in Overall Score on Lee cGvHD Symptom Scale, Mean (Standard Deviation) (Cohort 2: 200 mg BID, Cycle 27, Day 1): −13.2 (6.6) score on a scale
Change From Baseline in Overall Score on Lee cGvHD Symptom Scale, Mean (Standard Deviation) (Cohort 2: 200 mg BID, Cycle 29, Day 1): −11.0 (7.3) score on a scale
Change From Baseline in Overall Score on Lee cGvHD Symptom Scale, Mean (Standard Deviation) (Cohort 2: 200 mg BID, Cycle 31, Day 1): −15.6 (4.3) score on a scale
Change From Baseline in Overall Score on Lee cGvHD Symptom Scale, Mean (Standard Deviation) (Cohort 2: 200 mg BID, Cycle 33, Day 1): −13.5 (9.0) score on a scale
Change From Baseline in Overall Score on Lee cGvHD Symptom Scale, Mean (Standard Deviation) (Cohort 2: 200 mg BID, Cycle 35, Day 1): −11.0 (12.4) score on a scale
Change From Baseline in Overall Score on Lee cGvHD Symptom Scale, Mean (Standard Deviation) (Cohort 2: 200 mg BID, Cycle 37, Day 1): −13.6 (8.1) score on a scale
Change From Baseline in Overall Score on Lee cGvHD Symptom Scale, Mean (Standard Deviation) (Cohort 2: 200 mg BID, Cycle 39, Day 1): −14.3 (8.5) score on a scale
Change From Baseline in Overall Score on Lee cGvHD Symptom Scale, Mean (Standard Deviation) (Cohort 2: 200 mg BID, Cycle 41, Day 1): −19.3 (—) score on a scale
Change From Baseline in Overall Score on Lee cGvHD Symptom Scale, Mean (Standard Deviation) (Cohort 2: 200 mg BID, Cycle 43, Day 1): −19.9 (—) score on a scale
Change From Baseline in Overall Score on Lee cGvHD Symptom Scale, Mean (Standard Deviation) (Cohort 2: 200 mg BID, Cycle 47, Day 1): −16.8 (—) score on a scale
Change From Baseline in Overall Score on Lee cGvHD Symptom Scale, Mean (Standard Deviation) (Cohort 2: 200 mg BID, Cycle 49, Day 1): −15.4 (—) score on a scale
Change From Baseline in Overall Score on Lee cGvHD Symptom Scale, Mean (Standard Deviation) (Cohort 2: 200 mg BID, EOT): −2.4 (10.9) score on a scale
LSS improvement, nonresponder, n/N (Cohort 3 400 mg QD): 2/8
LSS improvement, responder, n/N (Cohort 3 400 mg QD): 9/13
Change From Baseline in Overall Score on Lee cGvHD Symptom Scale, Mean (Standard Deviation) (Cohort 3: 400 mg QD, Cycle 2, Day 1): −5.2 (6.3) score on a scale
Change From Baseline in Overall Score on Lee cGvHD Symptom Scale, Mean (Standard Deviation) (Cohort 3: 400 mg QD, Cycle 3, Day 1): −4.3 (8.2) score on a scale
Change From Baseline in Overall Score on Lee cGvHD Symptom Scale, Mean (Standard Deviation) (Cohort 3: 400 mg QD, Cycle 4, Day 1): −2.7 (8.2) score on a scale
Change From Baseline in Overall Score on Lee cGvHD Symptom Scale, Mean (Standard Deviation) (Cohort 3: 400 mg QD, Cycle 5, Day 1): −0.5 (10.8) score on a scale
Change From Baseline in Overall Score on Lee cGvHD Symptom Scale, Mean (Standard Deviation) (Cohort 3: 400 mg QD, Cycle 6, Day 1): −0.8 (9.3) score on a scale
Change From Baseline in Overall Score on Lee cGvHD Symptom Scale, Mean (Standard Deviation) (Cohort 3: 400 mg QD, Cycle 7, Day 1): −2.0 (12.3) score on a scale
Change From Baseline in Overall Score on Lee cGvHD Symptom Scale, Mean (Standard Deviation) (Cohort 3: 400 mg QD, Cycle 8, Day 1): −2.9 (10.9) score on a scale
Change From Baseline in Overall Score on Lee cGvHD Symptom Scale, Mean (Standard Deviation) (Cohort 3: 400 mg QD, Cycle 9, Day 1): −3.6 (10.2) score on a scale
Change From Baseline in Overall Score on Lee cGvHD Symptom Scale, Mean (Standard Deviation) (Cohort 3: 400 mg QD, Cycle 10, Day 1): −3.7 (9.9) score on a scale
Change From Baseline in Overall Score on Lee cGvHD Symptom Scale, Mean (Standard Deviation) (Cohort 3: 400 mg QD, Cycle 11, Day 1): −4.5 (6.1) score on a scale
Change From Baseline in Overall Score on Lee cGvHD Symptom Scale, Mean (Standard Deviation) (Cohort 3: 400 mg QD, Cycle 12, Day 1): −2.8 (6.0) score on a scale
Change From Baseline in Overall Score on Lee cGvHD Symptom Scale, Mean (Standard Deviation) (Cohort 3: 400 mg QD, Cycle 13, Day 1): −0.6 (7.1) score on a scale
Change From Baseline in Overall Score on Lee cGvHD Symptom Scale, Mean (Standard Deviation) (Cohort 3: 400 mg QD, Cycle 14, Day 1): −1.5 (7.7) score on a scale
Change From Baseline in Overall Score on Lee cGvHD Symptom Scale, Mean (Standard Deviation) (Cohort 3: 400 mg QD, Cycle 15, Day 1): −3.2 (8.2) score on a scale
Change From Baseline in Overall Score on Lee cGvHD Symptom Scale, Mean (Standard Deviation) (Cohort 3: 400 mg QD, Cycle 16, Day 1): 1.9 (7.9) score on a scale
Change From Baseline in Overall Score on Lee cGvHD Symptom Scale, Mean (Standard Deviation) (Cohort 3: 400 mg QD, Cycle 27, Day 1): −6.0 (9.6) score on a scale
Change From Baseline in Overall Score on Lee cGvHD Symptom Scale, Mean (Standard Deviation) (Cohort 3: 400 mg QD, Cycle 28, Day 1): 2.6 (—) score on a scale
Change From Baseline in Overall Score on Lee cGvHD Symptom Scale, Mean (Standard Deviation) (Cohort 3: 400 mg QD, Cycle 29, Day 1): −3.7 (13.0) score on a scale
Change From Baseline in Overall Score on Lee cGvHD Symptom Scale, Mean (Standard Deviation) (Cohort 3: 400 mg QD, Cycle 31, Day 1): −12.9 (—) score on a scale
Change From Baseline in Overall Score on Lee cGvHD Symptom Scale, Mean (Standard Deviation) (Cohort 3: 400 mg QD, Cycle 33, Day 1): −12.9 (—) score on a scale
Change From Baseline in Overall Score on Lee cGvHD Symptom Scale, Mean (Standard Deviation) (Cohort 3: 400 mg QD, Cycle 35, Day 1): −12.9 (—) score on a scale
Change From Baseline in Overall Score on Lee cGvHD Symptom Scale, Mean (Standard Deviation) (Cohort 3: 400 mg QD, Cycle 39, Day 1): −12.9 (—) score on a scale
Change From Baseline in Overall Score on Lee cGvHD Symptom Scale, Mean (Standard Deviation) (Cohort 3: 400 mg QD, Cycle 41, Day 1): −12.9 (—) score on a scale
Change From Baseline in Overall Score on Lee cGvHD Symptom Scale, Mean (Standard Deviation) (Cohort 3: 400 mg QD, Cycle 43, Day 1): −12.9 (—) score on a scale
Change From Baseline in Overall Score on Lee cGvHD Symptom Scale, Mean (Standard Deviation) (Cohort 3: 400 mg QD, Cycle 45, Day 1): −12.3 (—) score on a scale
Change From Baseline in Overall Score on Lee cGvHD Symptom Scale, Mean (Standard Deviation) (Cohort 3: 400 mg QD, Cycle 47, Day 1): −12.9 (—) score on a scale
Change From Baseline in Overall Score on Lee cGvHD Symptom Scale, Mean (Standard Deviation) (Cohort 3: 400 mg QD, Cycle 49, Day 1): −14.3 (—) score on a scale
Change From Baseline in Overall Score on Lee cGvHD Symptom Scale, Mean (Standard Deviation) (Cohort 3: 400 mg QD, Cycle 51, Day 1): −12.9 (—) score on a scale
Change From Baseline in Overall Score on Lee cGvHD Symptom Scale, Mean (Standard Deviation) (Cohort 3: 400 mg QD, EOT): 2.5 (11.9) score on a scale
clinically meaningful LSS improvement on consecutive assessments, nonresponders (Example 1): 32%
clinically meaningful LSS improvement on consecutive assessments, responders (Example 1): 37%
LSS improvement, nonresponder, n/N (Total, N=54): 7/19
LSS improvement, responder, n/N (Total, N=54): 20/35
clinically significant LSS improvement, overall, % (95% CI) (Total, N=54): 50%

— patent US20260027116A1, “Methods of Treating Chronic Graft-Versus-Host Disease Following Allogeneic Hematopoietic Stem Cell Transplantation” (Kadmon Corporation, LLC, priority 2022, published 2026)
